Laboratory results as given in PubChem BioAssay AID1259407 (Chemical Carcinogenesis Research Information System (CCRIS), 2018).
Calls of active or inactive are those of the source. The rule behind the calls is not given here.

Test system: CCRIS mutagenicity, Ames/micronucleus/aberration tests
Test: CCRIS mutagenicity studies
[1] = Test System: AMES SALMONELLA TYPHIMURIUM, Strain/Indicator: TA98, Metabolic Activation: NONE, Method: PREINCUBATION
[2] = Test System: AMES SALMONELLA TYPHIMURIUM, Strain/Indicator: TA100, Metabolic Activation: NONE, Method: PREINCUBATION
[3] = Test System: AMES SALMONELLA TYPHIMURIUM, Strain/Indicator: TA98, Metabolic Activation: HAMSTER, LIVER, S-9, AROCLOR 1254 (10%), Method: PREINCUBATION
[4] = Test System: AMES SALMONELLA TYPHIMURIUM, Strain/Indicator: TA98, Metabolic Activation: RAT, LIVER, S-9, AROCLOR 1254 (10%), Method: PREINCUBATION
[5] = Test System: AMES SALMONELLA TYPHIMURIUM, Strain/Indicator: TA100, Metabolic Activation: RAT, LIVER, S-9, AROCLOR 1254 (10%), Method: PREINCUBATION
[6] = Test System: AMES SALMONELLA TYPHIMURIUM, Strain/Indicator: TA1535, Metabolic Activation: HAMSTER, LIVER, S-9, AROCLOR 1254 (10%), Method: PREINCUBATION
[7] = Test System: AMES SALMONELLA TYPHIMURIUM, Strain/Indicator: TA1535, Metabolic Activation: NONE, Method: PREINCUBATION
[8] = Test System: AMES SALMONELLA TYPHIMURIUM, Strain/Indicator: TA1535, Metabolic Activation: RAT, LIVER, S-9, AROCLOR 1254 (10%), Method: PREINCUBATION
[9] = Test System: AMES SALMONELLA TYPHIMURIUM, Strain/Indicator: TA1537, Metabolic Activation: HAMSTER, LIVER, S-9, AROCLOR 1254 (10%), Method: PREINCUBATION
[10] = Test System: AMES SALMONELLA TYPHIMURIUM, Strain/Indicator: TA1537, Metabolic Activation: NONE, Method: PREINCUBATION

SMILES: COc1ccc2c(c1)c(CC(=O)O)c(C)n2C(=O)c1ccc(Cl)cc1
- mutagenic call (Test System: AMES SALMONELLA TYPHIMURIUM, Strain/Indicator: TA98, Metabolic Activation: GUINEA PIG, LIVER, S-9, PCB, Method: PREINCUBATION): inactive; negative
- mutagenic call (Test System: AMES SALMONELLA TYPHIMURIUM, Strain/Indicator: TA98, Metabolic Activation: HAMSTER, LIVER, S-9, PCB, Method: PREINCUBATION): inactive; negative
- mutagenic call (Test System: AMES SALMONELLA TYPHIMURIUM, Strain/Indicator: TA98, Metabolic Activation: MOUSE, LIVER, S-9, PCB, Method: PREINCUBATION): inactive; negative
- mutagenic call [1]: inactive; negative
- mutagenic call (Test System: AMES SALMONELLA TYPHIMURIUM, Strain/Indicator: TA98, Metabolic Activation: RAT, LIVER, S-9, PCB, Method: PREINCUBATION): inactive; negative
- mutagenic call (Test System: AMES SALMONELLA TYPHIMURIUM, Strain/Indicator: TA98, Metabolic Activation: RAT, LIVER, S-9, PCB, Method: STANDARD PLATE): inactive; negative
- mutagenic call (Test System: AMES SALMONELLA TYPHIMURIUM, Strain/Indicator: TA100, Metabolic Activation: GUINEA PIG, LIVER, S-9, PCB, Method: PREINCUBATION): inactive; negative
- mutagenic call (Test System: AMES SALMONELLA TYPHIMURIUM, Strain/Indicator: TA100, Metabolic Activation: HAMSTER, LIVER, S-9, PCB, Method: PREINCUBATION): inactive; negative
- mutagenic call (Test System: AMES SALMONELLA TYPHIMURIUM, Strain/Indicator: TA100, Metabolic Activation: MOUSE, LIVER, S-9, PCB, Method: PREINCUBATION): inactive; negative
- mutagenic call [2]: inactive; negative
- mutagenic call (Test System: AMES SALMONELLA TYPHIMURIUM, Strain/Indicator: TA100, Metabolic Activation: RAT, LIVER, S-9, PCB, Method: PREINCUBATION): active; positive
- mutagenic call (Test System: AMES SALMONELLA TYPHIMURIUM, Strain/Indicator: TA100, Metabolic Activation: RAT, LIVER, S-9, PCB, Method: STANDARD PLATE): inactive; negative
- mutagenic call (Test System: AMES SALMONELLA TYPHIMURIUM, Strain/Indicator: TA1537, Metabolic Activation: RAT, LIVER, S-9, PCB, Method: STANDARD PLATE): inactive; negative
- mutagenic call (Test System: AMES SALMONELLA TYPHIMURIUM, Strain/Indicator: TA1538, Metabolic Activation: RAT, LIVER, S-9, PCB, Method: STANDARD PLATE): inactive; negative
- mutagenic call (Test System: E. COLI, Strain/Indicator: WP2 UVRA, Metabolic Activation: RAT, LIVER, S-9, PCB, Method: STANDARD PLATE): inactive; negative

SMILES: Cc1cc(C)cc(N)c1
- mutagenic call (Test System: AMES SALMONELLA TYPHIMURIUM, Strain/Indicator: TA97, Metabolic Activation: HAMSTER, LIVER, S-9, AROCLOR 1254 (10%), Method: PREINCUBATION): inactive; negative
- mutagenic call (Test System: AMES SALMONELLA TYPHIMURIUM, Strain/Indicator: TA97, Metabolic Activation: NONE, Method: PREINCUBATION): inactive; negative
- mutagenic call (Test System: AMES SALMONELLA TYPHIMURIUM, Strain/Indicator: TA97, Metabolic Activation: RAT, LIVER, S-9, AROCLOR 1254 (10%), Method: PREINCUBATION): inactive; negative
- mutagenic call [3]: inactive; negative
- mutagenic call [1]: inactive; negative
- mutagenic call [4]: inactive; negative
- mutagenic call [2]: inactive; negative
- mutagenic call [5]: inactive; negative
- mutagenic call [6]: inactive; negative
- mutagenic call [7]: inactive; negative
- mutagenic call [8]: inactive; negative
- mutagenic call [9]: inactive; negative

SMILES: O=C1C(c2[nH]c3ccc(S(=O)(=O)O)cc3c2O)=Nc2ccc(S(=O)(=O)O)cc21
- mutagenic call [1]: inactive; negative
- mutagenic call (Test System: AMES SALMONELLA TYPHIMURIUM, Strain/Indicator: TA98, Metabolic Activation: S-9, Method: PREINCUBATION): inactive; negative
- mutagenic call [2]: inactive; negative
- mutagenic call (Test System: AMES SALMONELLA TYPHIMURIUM, Strain/Indicator: TA100, Metabolic Activation: S-9, Method: PREINCUBATION): inactive; negative
- mutagenic call (Test System: Mouse lymphoma, Strain/Indicator: L5178Y (tk+/tk-), Metabolic Activation: None, Method: Suspension/plate): inactive; negative
- mutagenic call (Test System: Mouse lymphoma, Strain/Indicator: L5178Y (tk+/tk-), Metabolic Activation: Rat, liver, S-9, Aroclor 1254, Method: Suspension/plate): active; positive

SMILES: CCC[CH2][Sn]([CH2]CCC)([O]C(C)=O)[O]C(C)=O
- mutagenic call [3]: inactive; negative
- mutagenic call [1]: inactive; negative
- mutagenic call [4]: inactive; negative
- mutagenic call (Test System: AMES SALMONELLA TYPHIMURIUM, Strain/Indicator: TA100, Metabolic Activation: HAMSTER, LIVER, S-9, AROCLOR 1254 (10%), Method: PREINCUBATION): inactive; negative
- mutagenic call [2]: inactive; negative
- mutagenic call [5]: inactive; negative
- mutagenic call [6]: inactive; negative
- mutagenic call [7]: inactive; negative
- mutagenic call [8]: inactive; negative
- mutagenic call [9]: inactive; negative
- mutagenic call [10]: inactive; negative
- mutagenic call (Test System: AMES SALMONELLA TYPHIMURIUM, Strain/Indicator: TA1537, Metabolic Activation: RAT, LIVER, S-9, AROCLOR 1254 (10%), Method: PREINCUBATION): inactive; negative

SMILES: CCCC(=O)Nc1ncnc2c1ncn2[C@@H]1O[C@@H]2COP(=O)(O)O[C@H]2[C@H]1OC(=O)CCC
- mutagenic call [1]: inactive; negative
- mutagenic call (Test System: AMES SALMONELLA TYPHIMURIUM, Strain/Indicator: TA98, Metabolic Activation: RAT, LIVER, S-9, KC-500, Method: PREINCUBATION): inactive; negative
- mutagenic call [2]: inactive; negative
- mutagenic call (Test System: AMES SALMONELLA TYPHIMURIUM, Strain/Indicator: TA100, Metabolic Activation: RAT, LIVER, S-9, KC-500, Method: PREINCUBATION): inactive; negative
- mutagenic call [7]: inactive; negative
- mutagenic call (Test System: AMES SALMONELLA TYPHIMURIUM, Strain/Indicator: TA1535, Metabolic Activation: RAT, LIVER, S-9, KC-500, Method: PREINCUBATION): inactive; negative
- mutagenic call [10]: inactive; negative
- mutagenic call (Test System: AMES SALMONELLA TYPHIMURIUM, Strain/Indicator: TA1537, Metabolic Activation: RAT, LIVER, S-9, KC-500, Method: PREINCUBATION): inactive; negative
- mutagenic call (Test System: AMES SALMONELLA TYPHIMURIUM, Strain/Indicator: TA1538, Metabolic Activation: NONE, Method: PREINCUBATION): inactive; negative
- mutagenic call (Test System: AMES SALMONELLA TYPHIMURIUM, Strain/Indicator: TA1538, Metabolic Activation: RAT, LIVER, S-9, KC-500, Method: PREINCUBATION): inactive; negative
- mutagenic call (Test System: E. COLI, Strain/Indicator: WP2 UVRA, Metabolic Activation: NONE, Method: PREINCUBATION): inactive; negative
- mutagenic call (Test System: E. COLI, Strain/Indicator: WP2 UVRA, Metabolic Activation: RAT, LIVER, S-9, KC-500, Method: PREINCUBATION): inactive; negative

SMILES: CCNc1nc(N)nc(Cl)n1
- mutagenic call (Test System: AMES SALMONELLA TYPHIMURIUM, Strain/Indicator: TA97, Metabolic Activation: NONE, Method: STANDARD PLATE): inactive; negative
- mutagenic call (Test System: AMES SALMONELLA TYPHIMURIUM, Strain/Indicator: TA98, Metabolic Activation: NONE, Method: STANDARD PLATE): inactive; negative
- mutagenic call (Test System: AMES SALMONELLA TYPHIMURIUM, Strain/Indicator: TA100, Metabolic Activation: NONE, Method: STANDARD PLATE): inactive; negative

SMILES: Nc1ccc([N+](=O)[O-])cc1Cl
- mutagenic call (End Point: IN VITRO CHROMOSOMAL ABERRATIONS, Test System: CHL CELLS, Metabolic Activation: RAT, LIVER, S-9, SODIUM PHENOBARBITAL AND 5,6-BENZOFLAVONE): active; positive (structural changes)
- mutagenic call (End Point: IN VITRO MICRONUCLEUS, Test System: CHL/IU CELLS, Metabolic Activation: NONE): inactive; negative
- mutagenic call [1]: active; positive
- mutagenic call (Test System: AMES SALMONELLA TYPHIMURIUM, Strain/Indicator: TA98, Metabolic Activation: RAT, LIVER, S-9, KANECHLOR 500, Method: PREINCUBATION): active; positive
- mutagenic call [2]: inactive; negative
- mutagenic call (Test System: AMES SALMONELLA TYPHIMURIUM, Strain/Indicator: TA100, Metabolic Activation: RAT, LIVER, S-9, KANECHLOR 500, Method: PREINCUBATION): inactive; negative
- mutagenic call (Test System: UDS RODENT HEPATOCYTES, Strain/Indicator: THY INCORP (NON-S-PHASE), Metabolic Activation: NONE, Method: AUTORADIOGRAPHY): inactive; negative
